Assay: Washability test C following DIN EN ISO 11998, 200 sponge cycles with disinfectant solution (Beispiel 10 C)
Type: physicochemical
Conditions: TPU, Rezeptur 1 nach Beispiel 2
Procedure: Der Test wurde in Anlehnung an die DIN EN ISO 11998:2006-10 ("Beschichtungsstoffe - Bestimmung der Nassabriebbeständigkeit und der Reinigungsfähigkeit von Beschichtungen (ISO 11998:2006)"; Ausgabedatum: 2006-10) durchgeführt, um das Auswaschen der verschiedenen Farbstoffe in den Kunststofffolien nach mechanischer Belastung zu beurteilen.
Hierzu wurden 200 Zyklen mit einem Anpressdruck von 135g angewendet. Es wurde ein Schwamm mit 4,0 mL Probelösung vorbereitet, die zu testende Folie eingespannt und der Schwamm aufgebracht. 200 Zyklen entsprachen dabei circa 5 min Kontaktzeit des Schwamms und der Oberfläche. Nach dem Test wurde die Folie entnommen und im UV-VIS Spektrometer vermessen, um die ausgewaschene Menge an Farbstoff zu bestimmen.
Der jeweils gemessene Wert vor dem Test und nach Abschluss der 200 Zyklen wurde verglichen und daraus ein prozentualer Verlust ermittelt.
Vorbereitet wurde die Folie nach Beispiel 2. Die zu verwendete Probelösung entsprach 5 Gew.-% Incidin Plus Lösung, bezogen auf das Gesamtgewicht der Probelösung.
Incidin Pro, der Firma ECOLAB Deutschland GmbH (Monheim), ist ein flüssiges Konzentrat, das sich zur Reinigung und Desinfektion medizinischer Geräte und Flächen in Einrichtungen des Gesundheitswesens angewendet wird.
Der Test ermittelt somit den nach wiederholtem flächigem Abwischen mit einem Desinfektionsmittel aus einer behandelten Oberfläche ausgetragenen Photokatalysator.

## CC(C)(O)c1cc[n+](CC2=Cc3cccc4cccc(c34)C2=O)cc1 [F-24b]
Washability test C (DIN EN ISO 11998), film before test
  Abs. vor Auswaschen: 0,121
Washability test C, 200 sponge cycles, 5 Gew.-% Incidin Plus Lösung
  Berechneter Verlust in %: 1,7%
Washability test C, film after 200 sponge cycles, 135g, 5 Gew.-% Incidin Plus Lösung
  Abs. nach Auswaschen: 0,119

— EP4458804A1, “METHOD FOR PRODUCING AN OBJECT, PHENALEN-1-ONE COMPOUND AND USE THEREOF” (TriOptoTec GmbH, priority 2023, dated 2024)
